{"source": "patent US20070128217A1", "about": "(priority 2003, published 2007)", "key": {"[1]": {"tested_on": "antibodies in sera from SARS patients (sera 1a, 1b, 2, 6, 37, 62, London, SARS-yellow, SARS-green)", "type": "binding, human", "set-up": "Binding of serum 6 to linear peptides of protein X1 of SARS-CoV Urbani / Binding of serum 37 to linear peptides of protein X1 of SARS-CoV Urbani / Binding of serum 6 to looped/cyclic peptide (PEPSCAN-ELISA) / Binding of serum 37 to looped/cyclic peptide (PEPSCAN-ELISA) / Binding of serum 37 to looped/cyclic peptides of protein X1 of SARS-CoV Urbani / Binding of serum 6 to linear peptides of protein X2 / Binding of serum 37 to linear peptides of protein X2 / Binding of serum 37 to looped/cyclic peptides of protein X2 of SARS-CoV Urbani / Binding of serum 6 to linear peptides of protein M of SARS-CoV Urbani / Binding of serum 37 to linear peptides of protein M of SARS-CoV Urbani / Binding of serum 6 to looped/cyclic peptides of protein M of SARS-CoV Urbani / Binding of serum 37 to looped/cyclic peptides of protein M of SARS-CoV Urbani / Binding of serum 6 to linear peptides of protein X3 of SARS-CoV Urbani / Binding of serum 37 to linear peptides of protein X3 of SARS-CoV Urbani / Binding of serum 37 to looped/cyclic peptides of protein X3 of SARS-CoV Urbani / Binding of serum 6 to linear peptides of protein X4 of SARS-CoV Urbani / Binding of serum 37 to linear peptides of protein X4 of SARS-CoV Urbani / Binding of serum 37 to looped/cyclic peptides of protein X4 of SARS-CoV Urbani / Binding of serum 6 to linear peptides of protein X5 of SARS-CoV Urbani / Binding of serum 37 to linear peptides of protein X5 of SARS-CoV Urbani / Binding of serum 37 to looped/cyclic peptides of protein X5 of SARS-CoV Urbani / Binding of serum 6 to linear peptides of protein N of SARS-CoV Urbani / Binding of serum 37 to linear peptides of protein N of SARS-CoV Urbani / Binding of serum 6 to linear peptide (PEPSCAN-ELISA) / Binding of serum 1a to looped/cyclic peptides of protein N of SARS-CoV Urbani / Binding of serum 1b to looped/cyclic peptides of protein N of SARS-CoV Urbani / Binding of serum 2 to looped/cyclic peptides of protein N of SARS-CoV Urbani / Binding of serum 6 to looped/cyclic peptides of protein N of SARS-CoV Urbani / Binding of serum 37 to looped/cyclic peptides of protein N of SARS-CoV Urbani / Binding of serum 62 to looped/cyclic peptides of protein N of SARS-CoV Urbani / Binding of serum London to looped/cyclic peptides of protein N of SARS-CoV Urbani / Binding of serum SARS-green to looped/cyclic peptides of protein N of SARS-CoV Urbani: unit not given here"}, "[2]": {"tested_on": "rabbit serum obtained by immunizing a rabbit with the SARS-CoV strain Frankfurt 1", "type": "binding", "set-up": "Binding of a rabbit serum to linear peptides / Binding of a rabbit serum to looped peptides / Rabbit serum linear peptides / Rabbit serum looped peptides / Binding of a rabbit serum to linear peptides of protein N of SARS-CoV Urbani (Rabbit serum linear peptides) / Binding of a rabbit serum to looped/cyclic peptides of protein N of SARS-CoV Urbani (Rabbit serum looped peptides): unit not given here"}}, "data": [{"sequence": "LLIQQWIQFMMSRRR", "values": [{"measurement": "Binding of serum 1a to linear peptides of protein X2", "setting": "[1]", "result": 0.7}, {"measurement": "Binding of serum 1a to looped/cyclic peptides of protein X2 of SARS-CoV Urbani", "setting": "[1]", "result": 0.5}, {"measurement": "Binding of serum 1b to linear peptides of protein X2", "setting": "[1]", "result": 0.5}, {"measurement": "Binding of serum 1b to looped/cyclic peptides of protein X2 of SARS-CoV Urbani", "setting": "[1]", "result": 0.5}, {"measurement": "Binding of serum 2 to linear peptides of protein X2", "setting": "[1]", "result": 0.5}, {"measurement": "Binding of serum 2 to looped/cyclic peptides of protein X2 of SARS-CoV Urbani", "setting": "[1]", "result": 0.7}, {"measurement": "Binding of serum 6 to linear peptides of protein X2", "setting": "[1]", "result": 0.5}, {"measurement": "Binding of serum 6 to looped/cyclic peptides of protein X2 of SARS-CoV Urbani", "setting": "[1]", "result": 0.3}, {"measurement": "Binding of serum 37 to linear peptides of protein X2", "setting": "[1]", "result": 0.6}, {"measurement": "Binding of serum 37 to looped/cyclic peptides of protein X2 of SARS-CoV Urbani", "setting": "[1]", "result": 0.5}, {"measurement": "Binding of serum 62 to linear peptides of protein X2", "setting": "[1]", "result": 0.6}, {"measurement": "Binding of serum 62 to looped/cyclic peptides of protein X2 of SARS-CoV Urbani", "setting": "[1]", "result": 0.7}, {"measurement": "Binding of serum London to linear peptides of protein X2", "setting": "[1]", "result": 0.4}, {"measurement": "Binding of serum London to looped/cyclic peptides of protein X2 of SARS-CoV Urbani", "setting": "[1]", "result": 0.2}, {"measurement": "Binding of serum SARS-green to linear peptides of protein X2", "setting": "[1]", "result": 0.5}, {"measurement": "Binding of serum SARS-green to looped/cyclic peptides of protein X2 of SARS-CoV Urbani", "setting": "[1]", "result": 0.3}, {"measurement": "Binding of serum SARS-yellow to linear peptides of protein X2", "setting": "[1]", "result": 0.8}, {"measurement": "Binding of serum SARS-yellow to looped/cyclic peptides of protein X2 of SARS-CoV Urbani", "setting": "[1]", "result": 0.4}, {"measurement": "Binding of a rabbit serum to linear peptides", "setting": "[2]", "result": 0.5}, {"measurement": "Binding of a rabbit serum to looped peptides", "setting": "[2]", "result": 0.6}]}, {"sequence": "QSATKIIALNKRWQL", "values": [{"measurement": "Binding of serum 1a to linear peptides of protein X1 of SARS-CoV Urbani", "setting": "[1]", "result": 0.8}, {"measurement": "Binding of serum 1a to looped/cyclic peptide (PEPSCAN-ELISA)", "setting": "[1]", "result": 0.4}, {"measurement": "Binding of serum 1b to linear peptides of protein X1 of SARS-CoV Urbani", "setting": "[1]", "result": 0.7}, {"measurement": "Binding of serum 1b to looped/cyclic peptide (PEPSCAN-ELISA)", "setting": "[1]", "result": 0.4}, {"measurement": "Binding of serum 2 to linear peptides of protein X1 of SARS-CoV Urbani", "setting": "[1]", "result": 0.7}, {"measurement": "Binding of serum 2 to looped/cyclic peptide (PEPSCAN-ELISA)", "setting": "[1]", "result": 0.5}, {"measurement": "Binding of serum 6 to linear peptides of protein X1 of SARS-CoV Urbani", "setting": "[1]", "result": 0.7}, {"measurement": "Binding of serum 6 to looped/cyclic peptide (PEPSCAN-ELISA)", "setting": "[1]", "result": 0.6}, {"measurement": "Binding of serum 37 to linear peptides of protein X1 of SARS-CoV Urbani", "setting": "[1]", "result": 0.7}, {"measurement": "Binding of serum 37 to looped/cyclic peptide (PEPSCAN-ELISA)", "setting": "[1]", "result": 0.6}, {"measurement": "Binding of serum 62 to linear peptides of protein X1 of SARS-CoV Urbani", "setting": "[1]", "result": 0.8}, {"measurement": "Binding of serum 62 to looped/cyclic peptide (PEPSCAN-ELISA)", "setting": "[1]", "result": 0.6}, {"measurement": "Binding of serum London to linear peptides of protein X1 of SARS-CoV Urbani", "setting": "[1]", "result": 0.4}, {"measurement": "Binding of serum London to looped/cyclic peptide (PEPSCAN-ELISA)", "setting": "[1]", "result": 0.4}, {"measurement": "Binding of serum SARS-green to linear peptides of protein X1 of SARS-CoV Urbani", "setting": "[1]", "result": 0.4}, {"measurement": "Binding of serum SARS-green to looped/cyclic peptide (PEPSCAN-ELISA)", "setting": "[1]", "result": 0.4}, {"measurement": "Binding of serum SARS-yellow to linear peptides of protein X1 of SARS-CoV Urbani", "setting": "[1]", "result": 0.5}, {"measurement": "Binding of serum SARS-yellow to looped/cyclic peptide (PEPSCAN-ELISA)", "setting": "[1]", "result": 0.4}, {"measurement": "Recognition of the peptide by the rabbit serum", "setting": "[2]", "result": "recognized"}]}, {"sequence": "RTLSYYKLGASQRVG", "values": [{"measurement": "Binding of serum 1a to linear peptides of protein M of SARS-CoV Urbani", "setting": "[1]", "result": 0.7}, {"measurement": "Binding of serum 1a to looped/cyclic peptides of protein M of SARS-CoV Urbani", "setting": "[1]", "result": 0.8}, {"measurement": "Binding of serum 1b to linear peptides of protein M of SARS-CoV Urbani", "setting": "[1]", "result": 0.6}, {"measurement": "Binding of serum 1b to looped/cyclic peptides of protein M of SARS-CoV Urbani", "setting": "[1]", "result": 0.5}, {"measurement": "Binding of serum 2 to linear peptides of protein M of SARS-CoV Urbani", "setting": "[1]", "result": 0.7}, {"measurement": "Binding of serum 2 to looped/cyclic peptides of protein M of SARS-CoV Urbani", "setting": "[1]", "result": 0.7}, {"measurement": "Binding of serum 6 to linear peptides of protein M of SARS-CoV Urbani", "setting": "[1]", "result": 0.8}, {"measurement": "Binding of serum 6 to looped/cyclic peptides of protein M of SARS-CoV Urbani", "setting": "[1]", "result": 1.5}, {"measurement": "Binding of serum 37 to linear peptides of protein M of SARS-CoV Urbani", "setting": "[1]", "result": 0.5}, {"measurement": "Binding of serum 62 to linear peptides of protein M of SARS-CoV Urbani", "setting": "[1]", "result": 0.5}, {"measurement": "Binding of serum London to linear peptides of protein M of SARS-CoV Urbani", "setting": "[1]", "result": 0.3}, {"measurement": "Binding of serum London to looped/cyclic peptides of protein M of SARS-CoV Urbani", "setting": "[1]", "result": 1.0}, {"measurement": "Binding of serum SARS-green to linear peptides of protein M of SARS-CoV Urbani", "setting": "[1]", "result": 0.5}, {"measurement": "Binding of serum SARS-green to looped/cyclic peptides of protein M of SARS-CoV Urbani", "setting": "[1]", "result": 0.4}, {"measurement": "Binding of serum SARS-yellow to linear peptides of protein M of SARS-CoV Urbani", "setting": "[1]", "result": 0.4}, {"measurement": "Binding of serum SARS-yellow to looped/cyclic peptides of protein M of SARS-CoV Urbani", "setting": "[1]", "result": 0.8}, {"measurement": "Rabbit serum linear peptides", "setting": "[2]", "result": 0.5}, {"measurement": "Rabbit serum looped peptides", "setting": "[2]", "result": 1.0}]}, {"sequence": "SATKIIALNKRWQLA", "values": [{"measurement": "Binding of serum 1a to linear peptides of protein X1 of SARS-CoV Urbani", "setting": "[1]", "result": 0.8}, {"measurement": "Binding of serum 1a to looped/cyclic peptide (PEPSCAN-ELISA)", "setting": "[1]", "result": 1.2}, {"measurement": "Binding of serum 1b to linear peptides of protein X1 of SARS-CoV Urbani", "setting": "[1]", "result": 0.6}, {"measurement": "Binding of serum 1b to looped/cyclic peptide (PEPSCAN-ELISA)", "setting": "[1]", "result": 0.8}, {"measurement": "Binding of serum 2 to linear peptides of protein X1 of SARS-CoV Urbani", "setting": "[1]", "result": 0.6}, {"measurement": "Binding of serum 2 to looped/cyclic peptide (PEPSCAN-ELISA)", "setting": "[1]", "result": 1.2}, {"measurement": "Binding of serum 6 to linear peptides of protein X1 of SARS-CoV Urbani", "setting": "[1]", "result": 0.7}, {"measurement": "Binding of serum 6 to looped/cyclic peptide (PEPSCAN-ELISA)", "setting": "[1]", "result": 0.9}, {"measurement": "Binding of serum 37 to linear peptides of protein X1 of SARS-CoV Urbani", "setting": "[1]", "result": 0.7}, {"measurement": "Binding of serum 37 to looped/cyclic peptide (PEPSCAN-ELISA)", "setting": "[1]", "result": 1.0}, {"measurement": "Binding of serum 62 to linear peptides of protein X1 of SARS-CoV Urbani", "setting": "[1]", "result": 0.8}, {"measurement": "Binding of serum 62 to looped/cyclic peptide (PEPSCAN-ELISA)", "setting": "[1]", "result": 1.5}, {"measurement": "Binding of serum London to linear peptides of protein X1 of SARS-CoV Urbani", "setting": "[1]", "result": 0.4}, {"measurement": "Binding of serum London to looped/cyclic peptide (PEPSCAN-ELISA)", "setting": "[1]", "result": 0.5}, {"measurement": "Binding of serum SARS-green to linear peptides of protein X1 of SARS-CoV Urbani", "setting": "[1]", "result": 0.3}, {"measurement": "Binding of serum SARS-green to looped/cyclic peptide (PEPSCAN-ELISA)", "setting": "[1]", "result": 1.0}, {"measurement": "Binding of serum SARS-yellow to linear peptides of protein X1 of SARS-CoV Urbani", "setting": "[1]", "result": 0.5}, {"measurement": "Binding of serum SARS-yellow to looped/cyclic peptide (PEPSCAN-ELISA)", "setting": "[1]", "result": 0.9}, {"measurement": "Recognition of the peptide by the rabbit serum", "setting": "[2]", "result": "recognized"}]}]}
